# Measurements taken from US20230190863A1, “PHARMACEUTICAL COMPOSITIONS AND ANTI-VIRAL USES THEREOF” (priority 2020, published 2023).
# Where “and” joins values, the source holds several entries; their conditions need not be identical. Equal entries are not always repeated. Where two headings read alike, the source gives them in different places. Ends that are not written are not given here.
# What was measured:
# [1] = tested on: Influenza A virus (A / WSN /33)
# MDCK-II cells = conditions: for Absorbance values - cytotoxicity at 24 h: MTT 570 nm; for Absorbance values - cytotoxicity at 24 h / Percentages of cytotoxicity at 24 h: replicates
# [2] = tested on: Influenza A virus (A / WSN /33); assay: microbe, parasite or virus in culture; conditions: MDCK-II, 24 h
# SARS-CoV2 [3] = tested on: SARS-CoV2
# Vero cells = conditions: for Absorbance values - cytotoxicity at 24 h / Percentages of cytotoxicity at 24 h / cytotoxicity (in words): Vero cells; for Absorbance values - cytotoxicity at 24 h: MTT 570 nm; for Absorbance values - cytotoxicity at 24 h / Percentages of cytotoxicity at 24 h: replicates
# Protocol: (§1) Antiviral activity was determined at 24 h using an immunofluorescence-based assay. Cytotoxicity was determined using an MTT assay on uninfected cells treated with the same concentrations of peptide.
# (§2) Virus and peptide were left on the cells for the entire duration of the experiment (24 h).
# (§3) Either immediately after infection, or 2 h after infection, 50µl of treatment from the dilution plate were transferred to the cells in each plate (infectivity and cytotoxicity). […] 50 µl of media without diluent were added to the cytotoxicity plate instead of virus. Both plates were incubated at 37° C., 5% CO2 for 24 h.
# (§4) The cytotoxicity plate was treated with MTT to determine cell viability.
# (§5) Cytotoxicity was detected by MTT assay following standard protocols and techniques. Briefly, the MTT reagent (Sigma, M5655) was added to the cells for 2 h at 37° C., 5% CO2, after which the media was removed and the precipitate solubilized with a mixture of 1: 1 Isopropanol: DMSO for 20 minutes. The supernatant was transferred to a clean plate and signal read at 570 nm.
# SARS-CoV2 [4] = assay: microbe, parasite or virus in culture; conditions: Severe acute respiratory syndrome coronavirus 2, Vero, 24 h
# [5] = Preliminary safety in pilot studies using human subjects; type: in vivo
# in vitro [6] = conditions: African green monkey
# Protocol: as §1, §2, §3, §4, §5
# in vitro [7] = conditions: dog, MTT
# SARS-CoV-2 = assay: Clinical study of INS peptide (GAMMORA) in patients with moderate to severe COVID-19; type: in vivo, human; conditions: of 15 treated, 40 mg/day SC for 9 days plus standard of care (Atripla)
# [8] = uninfected Vero cells, MTT, 24 h
molecule,measurement,setting,value
"O=C(Nc1ccc([N+](=O)[O-])cc1Cl)c1cc(Cl)ccc1O [Niclosamide, reference compound]",SI50 (=TC50/EC50),[1],16.84
same,SI90 (=TC90/EC90),[1],4.19
same,Absorbance values - cytotoxicity at 24 h,MDCK-II cells; 0 µM,0.1646 and 0.1811
same,Percentages of cytotoxicity at 24 h,MDCK-II cells; 0 µM,16.58% and 8.22%
same,Absorbance values - cytotoxicity at 24 h,MDCK-II cells; 0.01 µM,0.2048
same,Percentages of cytotoxicity at 24 h,MDCK-II cells; 0.01 µM,-3.79%
same,Absorbance values - cytotoxicity at 24 h,MDCK-II cells; 0.04 µM,0.2247 and 0.2292
same,Percentages of cytotoxicity at 24 h,MDCK-II cells; 0.04 µM,-13.87% and -16.15%
same,Absorbance values - cytotoxicity at 24 h,MDCK-II cells; 0.12 µM,0.213 and 0.2407
same,Percentages of cytotoxicity at 24 h,MDCK-II cells; 0.12 µM,-7.94% and -21.98%
same,Absorbance values - cytotoxicity at 24 h,MDCK-II cells; 0.37 µM,0.2429 and 0.2319
same,Percentages of cytotoxicity at 24 h,MDCK-II cells; 0.37 µM,-23.1% and -17.52%
same,Absorbance values - cytotoxicity at 24 h,MDCK-II cells; 1.11 µM,0.227 and 0.2465
same,Percentages of cytotoxicity at 24 h,MDCK-II cells; 1.11 µM,-15.04% and -24.92%
same,Absorbance values - cytotoxicity at 24 h,MDCK-II cells; 3.33 µM,0.2005 and 0.1965
same,Percentages of cytotoxicity at 24 h,MDCK-II cells; 3.33 µM,-1.61% and 0.42%
same,Absorbance values - cytotoxicity at 24 h,MDCK-II cells; 10 µM,0.107 and 0.1166
same,Percentages of cytotoxicity at 24 h,MDCK-II cells; 10 µM,45.77% and 40.91%
same,EC50,[2],0.61 µM
same,EC90,[2],3.06 µM
"CCC(CC)COC(=O)[C@H](C)N[P@](=O)(OC[C@H]1O[C@@](C#N)(c2ccc3c(N)ncnn23)[C@H](O)[C@@H]1O)Oc1ccccc1 [Remdesivir, reference compound]",EC99.9,SARS-CoV2 [3],4.4 µM
same,Absorbance values - cytotoxicity at 24 h,Vero cells; 0.01 uM,0.1378 and 0.1381
same,Absorbance values - cytotoxicity at 24 h,Vero cells; 0.03 uM,0.147 and 0.1423
same,Absorbance values - cytotoxicity at 24 h,Vero cells; 0.08 uM,0.1483 and 0.1462
same,Absorbance values - cytotoxicity at 24 h,Vero cells; 0.25 uM,0.1554 and 0.1531
same,Absorbance values - cytotoxicity at 24 h,Vero cells; 0.74 uM,0.1606 and 0.1568
same,Absorbance values - cytotoxicity at 24 h,Vero cells; 2.22 uM,0.1599 and 0.1541
same,Absorbance values - cytotoxicity at 24 h,Vero cells; 6.67 uM,0.1198 and 0.1127
same,Absorbance values - cytotoxicity at 24 h,Vero cells; 20 uM,0.1234 and 0.1247
same,EC50,SARS-CoV2 [4],1.28 µM
same,EC90,SARS-CoV2 [4],3.9 µM
WTAVQMAVFIHNFKRK [Codivir],adverse events / severe adverse events,[5],No adverse events or severe adverse events were detected
same,"tolerability, side effects",[5],"tolerable, exhibits no reported side effects and no harm to immune system, with no adverse events"
same,"vital signs, physical examinations",[5],no significant differences
same,blood tests,[5]; relative to baseline,no significant changes relative to the baseline
same,EC50,SARS-CoV2 [3]; 24 h,12.5 µM
same,Absorbance values - cytotoxicity at 24 h,Vero cells; 0.05 uM,0.1161 and 0.1456 and 0.1448 and 0.1447 and 0.1351
same,Percentages of cytotoxicity at 24 h,Vero cells; 0.05 uM,4.24% and -20.09% and -19.43% and -19.35% and -9.12% and -11.43%
same,Absorbance values - cytotoxicity at 24 h,Vero cells; 0.15 uM,0.1361 and 0.143 and 0.1487 and 0.1479 and 0.1455 and 0.1446
same,Percentages of cytotoxicity at 24 h,Vero cells; 0.15 uM,-12.26% and -17.95% and -22.65% and -21.99% and -20.01% and -19.27%
same,Absorbance values - cytotoxicity at 24 h,Vero cells; 0.46 uM,0.1454 and 0.1447 and 0.1452 and 0.1433 and 0.1468 and 0.1493
same,Percentages of cytotoxicity at 24 h,Vero cells; 0.46 uM,-19.93% and -19.35% and -19.76% and -18.20% and -21.08% and -23.15%
same,Absorbance values - cytotoxicity at 24 h,Vero cells; 4.17 uM,0.1306 and 0.1426 and 0.1477 and 0.1432 and 0.1433 and 0.1556
same,Percentages of cytotoxicity at 24 h,Vero cells; 4.17 uM,-7.72% and -17.62% and -21.83% and -18.12% and -18.20% and -28.34%
same,Absorbance values - cytotoxicity at 24 h,Vero cells; 12.50 uM,0.1196 and 0.1315 and 0.1325 and 0.1324 and 0.1314 and 0.1395
same,Percentages of cytotoxicity at 24 h,Vero cells; 12.50 uM,1.35% and -8.46% and -9.29% and -9.21% and -8.38% and -15.06%
same,Absorbance values - cytotoxicity at 24 h,Vero cells; 25.00 uM,0.0691 and 0.075 and 0.0733 and 0.0763 and 0.0762 and 0.0822
same,Percentages of cytotoxicity at 24 h,Vero cells; 25.00 uM,43.00% and 38.14% and 39.54% and 37.07% and 37.15% and 32.20%
same,Absorbance values - cytotoxicity at 24 h,Vero cells; 75.00 uM,0.0407 and 0.0403 (2×) and 0.0389 and 0.0414 and 0.0421
same,Percentages of cytotoxicity at 24 h,Vero cells; 75.00 uM,66.433% and 66.76% (2×) and 67.91% and 65.85% and 65.27%
same,cytotoxicity (in words),Vero cells; at concentrations giving 90% inhibition of infectivity,minimal cytotoxicity
same,cytotoxicity (in words),Vero cells; highest concentrations tested,Some cytotoxicity
same,TC90,Vero cells; [8],143.6 µM
same,TC99.9,Vero cells; [8],185.9 µM
same,Absorbance values - cytotoxicity at 24 h,MDCK-II cells; 0.05 µM,0.0985 and 0.1183 and 0.1389 and 0.1493 and 0.1468 and 0.1612
same,Absorbance values - cytotoxicity at 24 h,MDCK-II cells; 0.15 µM,0.1552 and 0.1707 and 0.1789 and 0.1965 and 0.1896 and 0.2019
same,Absorbance values - cytotoxicity at 24 h,MDCK-II cells; 0.46 µM,0.1522 and 0.1679 and 0.2104 and 0.2062 and 0.1922 and 0.1978
same,Absorbance values - cytotoxicity at 24 h,MDCK-II cells; 4.17 µM,0.2071 and 0.1982 and 0.2203 and 0.2153 and 0.2027 and 0.2054
same,Absorbance values - cytotoxicity at 24 h,MDCK-II cells; 12.50 µM,0.183 and 0.2158 and 0.2057 and 0.2165 and 0.2045 and 0.2113
same,Absorbance values - cytotoxicity at 24 h,MDCK-II cells; 25.00 µM,0.1794 and 0.1713 and 0.1708 and 0.1681 and 0.1845 and 0.1841
same,Absorbance values - cytotoxicity at 24 h,MDCK-II cells; 75.00 µM,0.0422 and 0.0436 and 0.0425 and 0.0421 (2×) and 0.0419
same,TC90,"MDCK-II cells; MTT, 24 h",around 100 µM
same,cytotoxicity (in words),MDCK-II cells; highest concentrations tested,Some cytotoxicity
same,Percentages of cytotoxicity at 24 h,"MDCK-II cells; post infection, 0.05 µM",24.34% and 25.6% and 18.31%
same,Percentages of cytotoxicity at 24 h,"MDCK-II cells; post infection, 0.15 µM",0.42% and 3.91% and -2.32%
same,Percentages of cytotoxicity at 24 h,"MDCK-II cells; post infection, 0.46 µM",-4.5% and 2.6% and -0.24%
same,Percentages of cytotoxicity at 24 h,"MDCK-II cells; post infection, 4.17 µM",-9.11% and -2.72% and -4.09%
same,Percentages of cytotoxicity at 24 h,"MDCK-II cells; post infection, 12.50 µM",-9.72% and -3.64% and -7.08%
same,Percentages of cytotoxicity at 24 h,"MDCK-II cells; post infection, 25.00 µM",14.81% and 6.5% and 6.7%
same,Percentages of cytotoxicity at 24 h,"MDCK-II cells; post infection, 75.00 µM",78.66% (2×) and 78.77%
same,Percentages of cytotoxicity at 24 h,"MDCK-II cells; with infection, 0.05 µM",50.08% and 40.05% and 29.61%
same,Percentages of cytotoxicity at 24 h,"MDCK-II cells; with infection, 0.15 µM",21.35% and 13.49% and 9.34%
same,Percentages of cytotoxicity at 24 h,"MDCK-II cells; with infection, 0.46 µM",22.87% and 14.91% and -6.63%
same,Percentages of cytotoxicity at 24 h,"MDCK-II cells; with infection, 4.17 µM",-4.95% and -0.44% and -11.64%
same,Percentages of cytotoxicity at 24 h,"MDCK-II cells; with infection, 12.50 µM",7.26% and -9.36% and -4.24%
same,Percentages of cytotoxicity at 24 h,"MDCK-II cells; with infection, 25.00 µM",9.08% and 13.19% and 13.44%
same,Percentages of cytotoxicity at 24 h,"MDCK-II cells; with infection, 75.00 µM",78.61% and 77.9% and 78.46%
same,CC50 at 24 h,in vitro [6],43.5 µM
same,CC50 at 24 h,"in vitro [7]; TC50, text, MDCK-II cells",~50 µM
same,CC50 at 24 h,"in vitro [7]; uninfected MDCK-II cells, TC50, post-infection row",51 µM
same,CC50 at 24 h,"in vitro [7]; uninfected MDCK-II cells, TC50, with infection row",49.2 µM
WTAVQMAVFIHNFKRK [INS-HC1],patients recovered completely and negative for SARS-CoV-2 at end of study,SARS-CoV-2,Four
same,patients discharged from intensive care unit (ICU) to the general ward with almost full recovery,"SARS-CoV-2; moderate to severe COVID-19, control group (Atripla only): 14 out of 15 died",15 patients
